Legend:
Assay in all cases: relative viability (nuclei count vs DMSO), 5 days (fraction); higher = more cells survive
Afatinib + Trametinib = compound: CN(C)C/C=C/C(=O)Nc1cc2c(Nc3ccc(F)c(Cl)c3)ncnc2cc1O[C@H]1CCOC1 [Afatinib] + CC(=O)Nc1cccc(-n2c(=O)n(C3CC3)c(=O)c3c(Nc4ccc(I)cc4F)n(C)c(=O)c(C)c32)c1 [Trametinib] (partner 0.02 µM)
How it was run: (§1)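 Relative viability divides the nuclei count in treated wells by that in vehicle wells. Lung cancer cell lines were seeded in 1536-well plates, dosed by pin tool the next day, and fixed and stained after 5 days in one step with final 0.05% Triton X-100, 1% formaldehyde and 1 ug/ml Hoechst. Dosing was a single drug or a fixed anchor-drug dose plus five library-drug doses (not always all listed) in √10 steps, and values are medians of duplicate plates imaged at 4×.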

Afatinib + Navitoclax = compound: CN(C)C/C=C/C(=O)Nc1cc2c(Nc3ccc(F)c(Cl)c3)ncnc2cc1O[C@H]1CCOC1 [Afatinib] + CC1(C)CCC(c2ccc(Cl)cc2)=C(CN2CCN(c3ccc(C(=O)NS(=O)(=O)c4ccc(N[C@H](CCN5CCOCC5)CSc5ccccc5)c(S(=O)(=O)C(F)(F)F)c4)cc3)CC2)C1 [Navitoclax] (partner 0.5 µM)
How it was run: as §1

Afatinib + Phenformin = compound: CN(C)C/C=C/C(=O)Nc1cc2c(Nc3ccc(F)c(Cl)c3)ncnc2cc1O[C@H]1CCOC1 [Afatinib] + N=C(N)NC(=N)NCCc1ccccc1 [Phenformin] (partner 250 µM)
How it was run: as §1

Afatinib + Pemetrexed = compound: CN(C)C/C=C/C(=O)Nc1cc2c(Nc3ccc(F)c(Cl)c3)ncnc2cc1O[C@H]1CCOC1 [Afatinib] + Nc1nc2[nH]cc(CCc3ccc(C(=O)N[C@@H](CCC(=O)O)C(=O)O)cc3)c2c(=O)[nH]1 [Pemetrexed] (partner 0.2 µM)
How it was run: as §1

Cell Line	relative viability (Afatinib + Trametinib; first compound 0.005 µM)	relative viability (Afatinib + Trametinib; first compound 0.01581 µM)	relative viability (Afatinib + Trametinib; first compound 0.05 µM)	relative viability (Afatinib + Trametinib; first compound 0.1581 µM)	relative viability (Afatinib + Trametinib; first compound 0.5 µM)	relative viability (Afatinib + Navitoclax; first compound 0.005 µM)	relative viability (Afatinib + Navitoclax; first compound 0.01581 µM)	relative viability (Afatinib + Navitoclax; first compound 0.05 µM)	relative viability (Afatinib + Navitoclax; first compound 0.1581 µM)	relative viability (Afatinib + Navitoclax; first compound 0.5 µM)	relative viability (Afatinib + Phenformin; first compound 0.005 µM)	relative viability (Afatinib + Phenformin; first compound 0.01581 µM)	relative viability (Afatinib + Phenformin; first compound 0.05 µM)	relative viability (Afatinib + Phenformin; first compound 0.1581 µM)	relative viability (Afatinib + Phenformin; first compound 0.5 µM)	relative viability (Afatinib + Pemetrexed; first compound 0.005 µM)	relative viability (Afatinib + Pemetrexed; first compound 0.01581 µM)	relative viability (Afatinib + Pemetrexed; first compound 0.05 µM)	relative viability (Afatinib + Pemetrexed; first compound 0.1581 µM)	relative viability (Afatinib + Pemetrexed; first compound 0.5 µM)
NCI-H1975	0.342	0.288	0.407	0.242	0.195	1.19	1.14	1.24	0.488	0.624	0.444	0.413	0.373	0.223	0.166	0.287	0.28	0.295	0.276	0.209
NCI-H1437	0.434	0.413	0.472	0.414	0.434	1.1	1.1	1.17	1.1	1.1	0.333	0.294	0.334	0.358	0.302	0.32	0.298	0.339	0.324	0.283
NCI-H2009	0.314	0.217	0.319	0.268	0.247	1.19	1.12	1.27	1.15	1.18	0.515	0.481	0.545	0.424	0.445	1.04	1.01	0.977	1.03	1.01
NCI-H1651	0.856	0.862	0.838	0.808	0.785	1.18	0.989	1.08	0.949	0.941	0.368	0.333	0.288	0.329	0.332	0.553	0.539	0.57	0.569	0.54
NCI-H1666	0.673	0.648	0.776	0.815	0.791	0.887	0.748	0.583	–	0.389	0.572	0.553	0.607	0.555	0.567	0.85	0.768	0.843	0.704	0.69
NCI-H1734	0.684	0.671	0.715	0.683	0.692	1.01	0.877	0.885	0.78	0.781	0.419	0.383	0.412	0.351	0.405	0.411	0.374	0.406	0.375	0.453
EPLC-272H	0.251	0.265	–	0.229	0.27	1.21	0.944	0.911	0.742	0.868	0.35	0.272	0.231	0.24	0.264	0.349	0.381	0.301	0.285	0.318
NCI-H2023	0.527	0.505	0.489	0.398	0.393	1.01	1.01	0.876	0.792	0.854	0.436	0.382	0.412	0.291	0.375	0.222	0.209	0.231	0.189	0.208
BEN	1.01	1.1	1.11	0.948	1.01	0.0693	0.0755	0.16	0.0734	0.0635	0.29	0.261	0.251	0.253	0.286	0.801	0.785	0.753	0.772	0.819
COR-L 105	0.38	0.315	0.379	0.34	0.352	0.444	0.373	0.315	0.293	0.26	0.294	0.22	0.211	0.203	0.249	0.837	0.503	0.542	0.353	0.377
HCC-15	0.338	0.393	0.325	0.35	0.344	0.682	0.719	0.745	0.684	0.686	0.487	0.487	0.488	0.47	0.517	0.226	0.222	–	0.207	0.234
NCI-H2170	0.892	0.853	0.615	0.169	0.156	0.481	0.454	0.284	0.187	0.2	0.368	0.383	0.335	0.216	0.208	0.251	0.245	0.25	0.214	0.212
PC-3 [JPC-3]	0.441	0.4	0.443	0.285	0.438	0.398	0.345	0.341	0.324	0.32	0.338	0.338	0.258	0.285	0.306	0.514	0.384	0.462	0.414	0.431
NCI-H1993	0.593	0.442	0.58	0.546	0.53	0.674	0.722	0.735	0.788	0.704	0.596	0.645	0.656	0.639	0.589	0.569	0.526	0.638	0.551	0.506
NCI-H1915	0.309	0.304	0.314	0.3	0.301	0.795	0.763	0.779	0.813	0.778	0.389	0.379	0.363	0.378	0.33	0.532	0.491	0.468	0.52	0.427
RERF-LC-KJ	0.852	0.806	0.723	0.684	0.674	0.786	0.766	0.874	–	0.751	0.423	0.393	0.342	0.315	0.335	0.466	0.442	0.484	0.481	0.453

Reference: the supplement of paper PMC10307832
